Laboratory results as given in patent US11827690B2, “ApoC-II mimetic peptides” (THE UNITED STATES OF AMERICA, as represented by the …, priority 2017, dated 2023).

What was measured:
[1] = tested on: apoC-III transgenic mice; assay: serum TG of apoC-III transgenic mice after Intralipid injection; format: in vivo; settings: peptide IP 1 hour after Intralipid, 5 and 10 μmole/kg, FIG. 39
Protocol: C57Bl/6 mice (wild-type), apoC-II knockout (apoC-II KO) mice, and apoC-III transgenic mice were used for in vivo study. The C57Bl/6 mice (wild-type) were purchased from Taconic Biosciences Inc. The apoC-II KO mice were created as described in Sakurai et al., J Pharmacol Exp Ther 356:341-353, 2016. The apoC-III transgenic mice were generated by overexpressing human apoC-III in C57Bl/6 mice. See Qu et al., J. Lipid Res. 48:1476-1487, 2007.
Mice were fasted overnight (approximately 12 hours) before the study and 6 hours during the study, the next day. The apoC-II mimetic peptides were synthetically produced and free of biological contamination (not available as FDA approved compounds/treatment). Peptides were produced and used in sterile conditions and filtered by 0.2 nm filter before injections in a single dose 1-10 μmol/kg body weight (B. W.) administered either subcutaneous injection (S.Q. or S.C.), intraperitoneal injection (I.P.) or intravenous injection (I.V.) (in a sterile, pharmaceutical grade PBS solution at a volume ≤200 μL) as described in Sakurai et al., J Pharmacol Exp Ther 356:341-353, 2016. […]

[2] = tested on: apoC-II knockout mice; assay: plasma lipids of apoC-II knockout mice after peptide injection; format: in vivo
[3] = target: T1, bovine LPL (Bos taurus, UniProt P11151); assay: in vitro LPL assay using hypertriglyceridemia patient sera as substrate; format: biochemical; settings: patient sera TG about 1000 mg/dL to about 1700 mg/dL, FIGS. 15A-D
T1 sequence (P11151 29-478): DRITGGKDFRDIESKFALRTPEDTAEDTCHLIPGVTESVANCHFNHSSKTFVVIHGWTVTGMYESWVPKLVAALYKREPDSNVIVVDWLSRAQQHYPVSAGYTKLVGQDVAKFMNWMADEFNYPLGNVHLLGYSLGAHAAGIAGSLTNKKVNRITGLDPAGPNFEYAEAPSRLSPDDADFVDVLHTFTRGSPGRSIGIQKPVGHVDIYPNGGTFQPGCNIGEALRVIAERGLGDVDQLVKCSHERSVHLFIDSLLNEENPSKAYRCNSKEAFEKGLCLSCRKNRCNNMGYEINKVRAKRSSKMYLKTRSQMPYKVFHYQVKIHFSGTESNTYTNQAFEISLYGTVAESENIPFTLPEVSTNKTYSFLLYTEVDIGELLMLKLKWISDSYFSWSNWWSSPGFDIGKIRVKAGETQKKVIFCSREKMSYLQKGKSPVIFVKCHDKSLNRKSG
Method in brief: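 Bovine LPL (diluted stock) added to Intralipid or human or mouse plasma with BSA and peptides in triplicate, held 30 min on ice, then incubated 1 hour at 37° C. Released free fatty acids measured by colorimetric NEFA assay at 550/660 nm against an oleic acid standard.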

[4] = target: T1, bovine LPL; assay: in vitro LPL assay using apoC-II deficient patient sera as substrate; format: biochemical
Method in brief: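 Bovine LPL incubated with peptide and substrate (3 mg/dL TG Intralipid or 1:100-diluted apoC-II-deficient human serum) in PBS with BSA, 30 min on ice then 1 h at 37° C. Released free fatty acids quantified by colorimetric NEFA assay (absorbance 550 and 660 nm) against an oleic acid standard.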

[5] = SEC-FPLC, 1 μmole/kg, 6 hours after injection, FIG. 41

DYLKEVFEKLRDLYEKFTPAVSTYTGIFTDQVLSVLKGEE [Delta6PV]
serum TG increase after Intralipid injection [1]: the TG increase was significantly reduced | time of maximum reduction of plasma TG ([2]; 0.1 μmol/kg intraperitoneally, after the peptide injection): about 6 hours | plasma TG ([2]; 0.1 μmol/kg of body weight intraperitoneally, FIG. 53): rapid reduction of plasma TG | level of HDL as measured by the phospholipid level [2, 5]: increased | level of VLDL as measured by the phospholipid level [2, 5]: decreased | level of TG in the VLDL pool ([2]; SEC-FPLC, 1 μmole/kg, FIG. 42): decreased | plasma TG ([2]; intraperitoneal injection): rapid and marked reduction of plasma TG | plasma TG ([2]; repeat IP injection at 24 h intervals for 6 days, 0.25 and 1 μmole/kg, FIG. 40): marked and lasting reduction of plasma TG | plasma TG ([2]; subcutaneous injection): rapid and marked reduction of plasma TG | LPL activation [3]: activated LPL in vitro | LPL activation compared with full length apoC-II protein ([4]; 10 pM to 10 μM, FIG. 51): activated LPL in vitro more efficiently than the full length apoC-II protein | LPL activation / TG hydrolysis ([4]; FIG. 52): activated LPL in vitro
